These results are taken from patent publication US8772283B2, “Imidazo-oxazine compound or salt thereof” (Taiho Pharmaceutical Co., Ltd., priority 2011, dated 2014).

One assay deals with human AKT1 (Homo sapiens (Human), UniProt P31749). Kind of assay: AKT1 kinase activity inhibition (TR-FRET, biotinylated Crosstide substrate). In kind it is biochemical. The following applies: preincubation 120 min at 25° C.; ATP 150 μM; Crosstide 500 nM. On the procedure: (§1) Preparation of AKT1 and AKT2 and measurement of in vitro inhibitory activity of the above-mentioned compounds against AKT1 and AKT2 kinase activity were carried out with reference to the method disclosed in Biochem. J. Vol. 385, pp 399-408 (2005). In the preparation of AKT1 and AKT2, human AKT1 and AKT2 to which a middle T antigen tag was added were expressed in Sf 9 insect cells, and then AKT1 and AKT2 were prepared following affinity purification and activation by PDK1. The prepared AKT1 and AKT2 were stored at −80° C. until the time of measurement of inhibitory activity of the compounds. In the measurement of inhibitory activity of the compounds, AKT1 or AKT2 and each compound of the present invention were preincubated at 25° C. for 120 minutes in a buffer solution for reaction (15 mM Tris-HCl pH 7.5, 0.01% Tween-20, 2 mM DTT). As a substrate, biotinylated Crosstide (bioton-KGSGSGRPRTSSFAEG), MgCl2, and ATP were added to final concentrations of 500 nM, 10 mM, and 150 μM, respectively, and reactions were carried out at 25° C. for 60 minutes. The reactions were stopped by adding EDTA to a final concentration of 80 mM. Then, a detection liquid in which an Eu-labeled anti-phosphorylation Crosstide antibody (PerkinElmer) and SureLight APC-SA (PerkinElmer) were contained at a final concentration of 0.5 nM and […], respectively, was added, and reactions were carried out at room temperature for 2 hours. Finally, the amount of fluorescence at the time of irradiation of excitation light having a wavelength of 337 nm was measured at dual wavelengths of 620 nm and 665 nm by PHERAstar FS (BMG LABTECH). The amount of phosphorylation was determined from the ratio of the fluorescence amounts at the dual wavelengths. The compound concentration at which phosphorylation can be inhibited by 50% was defined as […] (nM), and the results are shown in Table 4 below.
Chain of human AKT1 (P31749 whole entry): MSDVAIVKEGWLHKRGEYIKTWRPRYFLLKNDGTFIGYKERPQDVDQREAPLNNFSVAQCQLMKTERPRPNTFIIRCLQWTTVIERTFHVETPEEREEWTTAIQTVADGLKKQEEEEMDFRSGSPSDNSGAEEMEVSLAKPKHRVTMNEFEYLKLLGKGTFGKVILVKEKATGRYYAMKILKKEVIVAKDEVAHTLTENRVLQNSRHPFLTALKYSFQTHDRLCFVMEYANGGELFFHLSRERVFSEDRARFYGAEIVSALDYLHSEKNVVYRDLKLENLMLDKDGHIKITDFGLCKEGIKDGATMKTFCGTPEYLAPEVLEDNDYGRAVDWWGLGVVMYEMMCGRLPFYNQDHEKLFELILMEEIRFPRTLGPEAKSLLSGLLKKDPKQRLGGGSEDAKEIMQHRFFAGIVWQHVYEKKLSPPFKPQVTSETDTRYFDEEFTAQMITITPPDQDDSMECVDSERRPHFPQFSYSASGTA
For orientation: In TR-FRET formats the signal depends on donor and acceptor labels being close together.

The target in the next assay is human AKT2 (Homo sapiens (Human), UniProt P31751). The experiment in a line: AKT2 kinase activity inhibition (TR-FRET, biotinylated Crosstide substrate). It is filed as biochemical. The note with it: preincubation 120 min at 25° C.; ATP 150 μM; Crosstide 500 nM. On the procedure: as §1
Chain of human AKT2 (P31751 whole entry): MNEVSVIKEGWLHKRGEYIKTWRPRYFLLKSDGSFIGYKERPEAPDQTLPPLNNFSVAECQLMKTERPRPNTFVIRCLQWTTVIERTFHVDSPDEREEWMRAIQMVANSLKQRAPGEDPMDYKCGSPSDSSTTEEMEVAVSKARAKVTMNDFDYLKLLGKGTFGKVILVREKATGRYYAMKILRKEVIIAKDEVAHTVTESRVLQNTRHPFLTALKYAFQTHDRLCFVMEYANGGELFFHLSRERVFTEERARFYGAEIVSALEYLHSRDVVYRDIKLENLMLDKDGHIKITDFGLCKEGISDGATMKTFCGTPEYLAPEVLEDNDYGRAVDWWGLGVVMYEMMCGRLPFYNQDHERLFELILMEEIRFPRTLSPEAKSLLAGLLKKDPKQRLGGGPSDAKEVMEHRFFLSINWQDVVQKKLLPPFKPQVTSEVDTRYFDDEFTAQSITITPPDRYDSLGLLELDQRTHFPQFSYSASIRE

Structures can show the parent of a compound that is named as a salt.

Broadly, the IC50 is the point on the concentration scale where inhibition reaches its midpoint. Higher therefore signals weaker potency in that assay. As to `CC1(O)CC(N)(c2ccc(-c3nc4n(c3-c3ccncc3)COc3cccc(F)c3-4)cc2)C1` (stereo not drawn) [Example 7, trans-3-amino-3-(4-(10-fluoro-3-(pyridin-4-yl)-5H-benzo[e]imidazo[1,2-c][1,3]oxazin-2-yl)phenyl)-1-methylcyclobutanol], the figures for the half-inhibitory concentration (IC50) on human AKT1 and at human AKT2 were 25 nM and 1.1 nM, respectively.
For `CC1(O)CC(N)(c2ccc(-c3nc4n(c3-c3ccccc3)COc3ccc(C(N)=O)cc3-4)cc2)C1` (stereo not drawn) [Example 53, 2-(4-(trans-1-amino-3-hydroxy-3-methylcyclobutyl)phenyl)-3-phenyl-5H-benzo[e]imidazo[1,2-c][1,3]oxazine-9-carboxamide] the same measures were 1.6 nM and 0.26 nM.
For `CC1(O)CC(N)(c2ccc(-c3nc4n(c3-c3ccccc3)COc3ccc(-c5cn[nH]c5)cc3-4)cc2)C1` (stereo not drawn) [Example 49, trans-3-amino-1-methyl-3-(4-(3-phenyl-9-(1H-pyrazol-4-yl)-5H-benzo[e]imidazo[1,2-c][1,3]oxazin-2-yl)phenyl)cyclobutanol] the same measures were 1.3 nM and 0.42 nM.
The matching figures for `CC1(O)CC(N)(c2ccc(-c3nc4n(c3-c3ccccc3)COc3cccc(F)c3-4)cc2)C1` (stereo not drawn) [Example 2, trans-3-amino-3-(4-(10-fluoro-3-phenyl-5H-benzo[e]imidazo[1,2-c][1,3]oxazin-2-yl)phenyl)-1-methylcyclobutanol]: 4.6 nM and 0.5 nM.
For the compound `COc1ccc2c(c1)-c1nc(-c3ccc(C4(N)CC(C)(O)C4)cc3)c(-c3ccccc3)n1CO2` (stereo not drawn) [Example 20, trans-3-amino-3-(4-(9-methoxy-3-phenyl-5H-benzo[e]imidazo[1,2-c][1,3]oxazin-2-yl)phenyl)-1-methylcyclobutanol], the IC50 is 2.9 nM on human AKT1 and 0.75 nM against human AKT2.
The matching figures for `CCOc1cccc2c1-c1nc(-c3ccc(C4(N)CC(C)(O)C4)cc3)c(-c3ccccc3)n1CO2` (stereo not drawn) [Example 24, trans-3-amino-3-(4-(10-ethoxy-3-phenyl-5H-benzo[e]imidazo[1,2-c][1,3]oxazin-2-yl)phenyl)-1-methylcyclobutanol]: 30 nM and 1.8 nM.
The matching figures for `COc1cccc2c1OCn1c-2nc(-c2ccc([C@]3(N)C[C@@](O)(C4CC4)C3)cc2)c1-c1ccccc1` [Example 19, trans-3-amino-1-cyclopropyl-3-(4-(7-methoxy-3-phenyl-5H-benzo[e]imidazo[1,2-c][1,3]oxazin-2-yl)phenyl)cyclobutanol]: 16 nM and 2 nM.
The matching figures for `NC1(c2ccc(-c3nc4n(c3-c3ccncc3)COc3ccccc3-4)cc2)CCC1` [Example 15, 1-(4-(3-(pyridin-4-yl)-5H-benzo[e]imidazo[1,2-c][1,3]oxazin-2-yl)phenyl)cyclobutanamine]: 51 nM and 6.5 nM.
As for `COc1ccc2c(c1)OCn1c-2nc(-c2ccc(C3(N)CC(C)(O)C3)cc2)c1-c1ccccc1` (stereo not drawn) [Example 21, trans-3-amino-3-(4-(8-methoxy-3-phenyl-5H-benzo[e]imidazo[1,2-c][1,3]oxazin-2-yl)phenyl)-1-methylcyclobutanol], the IC50 is 6 nM against human AKT1 and 0.91 nM at human AKT2.
The matching figures for `NC1(c2ccc(-c3nc4n(c3-c3ccccc3)COc3c(F)cccc3-4)cc2)CC(O)(C2CC2)C1` (stereo not drawn) [Example 10, trans-3-amino-1-cyclopropyl-3-(4-(7-fluoro-3-phenyl-5H-benzo[e]imidazo[1,2-c][1,3]oxazin-2-yl)phenyl)cyclobutanol]: 2.3 nM and 1.4 nM.
The matching figures for `Cc1cccc2c1OCn1c-2nc(-c2ccc([C@]3(N)C[C@@](O)(C4CC4)C3)cc2)c1-c1ccccc1` [Example 26, trans-3-amino-1-cyclopropyl-3-(4-(7-methyl-3-phenyl-5H-benzo[e]imidazo[1,2-c][1,3]oxazin-2-yl)phenyl)cyclobutanol]: 26 nM and 1.5 nM.
In the case of `CC1(O)CC(N)(c2ccc(-c3nc4n(c3-c3ccccc3)COc3cc(C(=O)NCCO)ccc3-4)cc2)C1` (stereo not drawn) [Example 58, 2-(4-(trans-1-amino-3-hydroxy-3-methylcyclobutyl)phenyl)-N-(2-hydroxyethyl)-3-phenyl-5H-benzo[e]imidazo[1,2-c][1,3]oxazine-8-carboxamide], the IC50 stood at 3.1 nM at human AKT1 and 0.7 nM on human AKT2.
The matching figures for `NC1(c2ccc(-c3nc4n(c3-c3ccccc3)COc3cccc(F)c3-4)cc2)CCC1` [Example 3, 1-(4-(10-fluoro-3-phenyl-5H-benzo[e]imidazo[1,2-c][1, 3]oxazin-2-yl)phenyl)cyclobutanamine]: 16 nM and 1.2 nM.
The matching figures for `NC1(c2ccc(-c3nc4n(c3-c3ccccc3)COc3ncccc3-4)cc2)CCC1` [Example 40, 1-(4-(3-phenyl-5H-imidazo[1,2-c]pyrido[3,2-e][1,3]oxazin-2-yl)phenyl)cyclobutanamine]: 3.9 nM and 1.6 nM.
`CN(C)C(=O)c1ccc2c(c1)-c1nc(-c3ccc(C4(N)CC(C)(O)C4)cc3)c(-c3ccccc3)n1CO2` (stereo not drawn) [Example 54, 2-(4-(trans-1-amino-3-hydroxy-3-methylcyclobutyl)phenyl)-N,N-dimethyl-3-phenyl-5H-benzo[e]imidazo[1,2-c][1,3]oxazine-9-carboxamide]: the results for the IC50 at human AKT1 and against human AKT2 were 4.4 nM and 1.3 nM, respectively.
Turning to `CCONC(=O)c1ccc2c(c1)-c1nc(-c3ccc([C@]4(N)C[C@](C)(O)C4)cc3)c(-c3ccccc3)n1CO2` [Example 61, 2-(4-(trans-1-amino-3-hydroxy-3-methylcyclobutyl)phenyl)-N-ethoxy-3-phenyl-5H-benzo[e]imidazo[1,2-c][1,3]oxazine-9-carboxamide], the values for the IC50 on human AKT1 and on human AKT2 were 1.8 nM and 0.4 nM, respectively.
On to `NC1(c2ccc(-c3nc4n(c3-c3ccccc3)COc3ccncc3-4)cc2)CCC1` [Example 33, 1-(4-(3-phenyl-5H-imidazo[1,2-c]pyrido[3,4-e][1,3]oxazin-2-yl)phenyl)cyclobutanamine], for which the IC50 is 14 nM against human AKT1 and 1.7 nM against human AKT2.
`C[C@]1(O)C[C@@](N)(c2ccc(-c3nc4n(c3-c3ccccc3)COc3ccccc3-4)cc2)C1` [Example 12, trans-3-amino-1-methyl-3-(4-(3-phenyl-5H-benzo[e]imidazo[1,2-c][1,3]oxazin-2-yl)phenyl)cyclobutanol]: the IC50 was 5.3 nM at human AKT1 and 1.7 nM on human AKT2.
With `NC1(c2ccc(-c3nc4n(c3-c3ccsc3)COc3ccccc3-4)cc2)CCC1` [Example 14, 1-(4-(3-(thiophen-3-yl)-5H-benzo[e]imidazo[1,2-c][1,3]oxazin-2-yl)phenyl)cyclobutanamine], the concentration for half-maximal inhibition (IC50) against human AKT1 amounted to 27 nM; at human AKT2 it was 5.4 nM.
For `CC1(O)CC(N)(c2ccc(-c3nc4n(c3-c3ccccc3)COc3cc(C(=O)O)ccc3-4)cc2)C1` (stereo not drawn) [Example 64, 2-(4-(trans-1-amino-3-hydroxy-3-methylcyclobutyl)phenyl)-3-phenyl-5H-benzo[e]imidazo[1,2-c][1,3]oxazine-8-carboxylic acid hydrochloride] the same measures were 3.1 nM and 0.94 nM.
As for `CC1(O)CC(N)(c2ccc(-c3nc4n(c3-c3ccsc3)COc3cccc(F)c3-4)cc2)C1` (stereo not drawn) [Example 6, trans-3-amino-3-(4-(10-fluoro-3-(thiophen-3-yl)-5H-benzo[e]imidazo[1,2-c][1,3]oxazin-2-yl)phenyl)-1-methylcyclobutanol], the values for the IC50 on human AKT1 and on human AKT2 were 9.8 nM and 0.91 nM, respectively.
Consider `NC1(c2ccc(-c3nc4n(c3-c3ccsc3)COc3cccc(F)c3-4)cc2)CC(O)(C2CC2)C1` (stereo not drawn) [Example 4, trans-3-amino-1-cyclopropyl-3-(4-(10-fluoro-3-(thiophen-3-yl)-5H-benzo[e]imidazo[1,2-c][1,3]oxazin-2-yl)phenyl)cyclobutanol], for which the values for the IC50 on human AKT1 and at human AKT2 were 7.1 nM and 0.71 nM, respectively.
The matching figures for `CCOc1cccc2c1-c1nc(-c3ccc(C4(N)CC(O)(C5CC5)C4)cc3)c(-c3ccccc3)n1CO2` (stereo not drawn) [Example 23, trans-3-amino-1-cyclopropyl-3-(4-(10-ethoxy-3-phenyl-5H-benzo[e]imidazo[1,2-c][1,3]oxazin-2-yl)phenyl)cyclobutanol]: 28 nM and 1.7 nM.
The matching figures for `CC1(O)CC(N)(c2ccc(-c3nc4n(c3-c3ccccc3)COc3cc(CO)ccc3-4)cc2)C1` (stereo not drawn) [Example 45, trans-3-amino-3-(4-(8-(hydroxymethyl)-3-phenyl-5H-benzo[e]imidazo[1,2-c][1,3]oxazin-2-yl)phenyl)-1-methylcyclobutanol]: 8.6 nM and 2.7 nM.
